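A five-concentration, 48-hour dose response in 96-well plates underlies each endpoint, interpolated linearly between surrounding concentrations. At the TGI there is no net growth.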
Key:
Assay in all cases: NCI-60 cell line screen, 48 h
HOP-92 NSCLC = test system: HOP-92 NSCLC
LOX IMVI melanoma = test system: LOX IMVI melanoma
SR leukemia = test system: SR leukemia
MDA-N = test system: MDA-N
UACC-62 melanoma = test system: UACC-62 melanoma
HS 578T breast = test system: HS 578T breast
OVCAR-3 ovarian = test system: OVCAR-3 ovarian
HT29 colon = test system: HT29 colon
SK-OV-3 ovarian = test system: SK-OV-3 ovarian
MDA-MB-231 breast = test system: MDA-MB-231 breast

SMILES | TGI (HOP-92 NSCLC) [µM] | TGI (LOX IMVI melanoma) [µM] | TGI (SR leukemia) [µM] | TGI (MDA-N) [µM] | TGI (UACC-62 melanoma) [µM] | TGI (HS 578T breast) [µM] | TGI (OVCAR-3 ovarian) [µM] | TGI (HT29 colon) [µM] | TGI (SK-OV-3 ovarian) [µM] | TGI (MDA-MB-231 breast) [µM]
C(=Nc1ccc(-c2nc3ccccc3s2)cc1)c1ccc[nH]1 | 40.1 | 33.3 | 49.5 | 33.6 | 30.7 | 53.4 | 39.5 | 38.8 | 51.6 | 
Cn1c(=O)c2c(nc3sc4ccccc4c(=O)n32)n(C)c1=O | > 100 | > 100 |  | > 100 | > 100 | > 100 | > 100 | > 100 | > 100 | > 100
COc1ccc(C2C(=O)c3c(OC)cc(OC)cc3OC2c2cccnc2)cc1 (stereo not given) |  | > 100 | > 100 | > 100 | > 100 | > 100 | > 100 | > 100 | > 100 | > 100
O=C1CN(c2cccc(Cl)c2)C(=O)CN1NCNN1CC(=O)N(c2cccc(Cl)c2)CC1=O | > 100 |  | > 100 | > 100 | > 100 | > 100 | > 100 | > 100 | > 100 | 
CCOC(=O)C1(C#N)CC1 |  | > 100 | > 100 | > 100 | > 100 | > 100 |  | > 100 | > 100 | > 100
CCN1CCC(CNC(=O)c2ccc(N)cc2)N1CC (stereo not given) | > 100 |  | > 100 | > 100 | > 100 | > 100 | > 100 | > 100 | > 100 | > 100
COc1cc2c(/C=C3/C(=O)N(C)c4ccc(O)cc43)c(Cl)[nH]c2cc1C | 38.5 | 17.3 | 1.23 |  | 13.6 | 28.9 | 0.597 | 46.7 | 3.13 | 15
CC(=O)OC1[C@H](OC(C)=O)C2=C(C)[C@@H](OC(C)=O)C[C@@]2(C(C)(C)O)[C@@H](OC(C)=O)[C@H]2[C@@]1(C)[C@@H](OC(C)=O)CC(OC(C)=O)[C@]21CO1 (stereo not given in full) |  | > 100 | > 100 | > 100 | > 100 | > 100 | > 100 | > 100 | > 100 | 
Cc1cc(S(=O)(=O)Nc2n[nH]c(N)n2)c(Cl)cc1Cl |  | > 10 |  | > 10 | > 10 | > 10 | > 10 | > 10 | > 10 | > 10
CN(CCNC(=O)c1c[nH]c2c1Cc1ccccc1-2)CCNC(=O)c1c[nH]c2c1Cc1ccccc1-2 | > 100 | > 100 | > 100 | 33.9 | 40.9 | > 100 | 73.7 | > 100 |  | 80.6
O=C(Nc1ccc(S(=O)(=O)/N=c2\ncccn2C(=O)C(C(F)(F)F)C(F)(F)F)cc1)C(C(F)(F)F)C(F)(F)F |  | > 100 |  | > 100 | > 100 | > 100 | > 100 | > 100 | > 100 | > 100
COc1cc(C(C)O)c[n+](CCC2CNc3ccccc32)c1 (stereo not given) |  | > 100 | > 100 |  | > 100 |  | > 100 | > 100 |  | 
Clc1ccc(C[P+](c2ccccc2)(c2ccccc2)c2ccccc2)cc1Cl | 6.02 | 11.7 | > 100 |  | 9.33 |  | 6.74 | 11.9 | 20.8 | 
CN(CCc1ccccn1)C(=S)N/N=C(\c1ccccc1)c1ccccn1 | 3.59 | 2.04 | 15.9 | 8.51 | 2.04 | > 26.4 | 10.4 | 2.77 | 2.19 | 
Cc1ccc(C2(c3ccc(F)cc3)OC(=O)c3ccccc32)c(O)c1 (stereo not given) | 34.9 | 26.9 |  | 24.3 | 23 | 77.4 | 17.9 | > 100 | 26.4 | 46.1
C[C@@H]1CC(=O)C[C@@H]2CC[C@H]3[C@@H]4CC[C@H](OC(=O)c5cccc6cc7ccccc7nc56)[C@H]4CC[C@@H]3[C@H]21 | 48.1 | 39.8 |  | 26.3 | 28.4 | > 100 | 29.8 | 29.3 | 66.7 | 37
O=C(/C(=C\I)c1ccccc1)c1ccccc1 | 28.2 | 29.9 | 41 |  | 12 | 19.1 | 5.71 | 4.95 | 32.3 | 17.4
Brc1cccc(C2ON=C(c3ccccc3)N2C23CC4CC(CC(C4)C2)C3)c1 (stereo not given) | > 10 | > 10 |  | > 10 | > 10 | > 10 | > 10 | > 10 | > 10 | > 10
O=C(Cn1c(C(=O)c2ccccc2)nc2ccccc21)c1ccccc1 | > 100 | > 100 | > 100 |  | > 100 | > 100 | > 100 | > 31.6 | > 100 | > 100
COc1ccccc1C1(c2c(OC)c(=O)c2=O)SCCCS1 | > 100 | > 100 |  | > 100 | > 100 | > 100 | > 100 | > 100 | > 100 | > 100
C=C1C(=O)O[C@H]2C[C@@H]1[C@@H](O)[C@H](O)[C@@H](C)CCCC(C)=CCC[C@@]2(C)O | 99.5 | 65 | > 100 | 54.6 | 49.2 | 43.9 | 28.5 |  | > 100 | 84.4
C/C(=N\Nc1nc2ccccc2s1)c1cc2ccccc2cn1 | 93.6 | 10.4 |  | > 100 | 21.1 |  | 6.96 | 11 | 10.7 | 33.9
CC1(C)OC2OC(C(COS(=O)(=O)C(F)(F)F)N=[N+]=[N-])C(OC(=O)c3ccccc3)C2O1 (stereo not given) | > 100 | > 100 |  | > 100 | > 100 | > 100 | > 100 | > 100 | > 100 | > 100
